Experiment [1] has as its system micro-capillary blood flow to skin. The experiment in a line: Laser Doppler microcirculation study in three human female subjects, 10,000 ppm NO (Example 5). It counts as in vivo. To be noted: applied to the skin at 1/10% in alcohol. As to the method:
This example illustrates delivery of nitric oxide formulations similar to those discussed herein in humans. In these studies, laser Doppler studies were performed on three human female subjects. […] The formulations used produce positive, almost immediate results when applied to the skin which, in these studies, was manifested by vasodilatation of the cutaneous vascular system.
While nitric oxide has many physiological effects, the purpose of these studies was to measure physiological effects that would be relatively easy to determine, and which would be noninvasive. […] Nitric oxide is capable of […] the capillary bed, and thus, laser Doppler was selected.
The formulation used in these studies contained nitric oxide dispersed in a lipid matrix. […] This provided a stable measuring device as determined by multiple normal evaluations of the capillary blood flow without treatment of nitric oxide.
A known positive control, methyl nicotinate, was applied to the skin at a concentration of 1/10% in alcohol. […] The laser Doppler device accurately measured these parameters.
In these studies, the participants were healthy females aged 30 to 55 years. They were in good health as determined by the medical history and were not taking any prescription medications. All study participants read and signed the informed consent statement prior to any study procedures being performed. […]

For experiment [2], the system named is capillary circulation of the skin. Kind of experiment: Laser Doppler circulation study in five human subjects (Example 7). The note with it: positive control formulation containing 0.1% methyl nicotinate. In kind it is in vivo. From the text: This example illustrates delivery of nitric oxide formulations to five human subjects, using procedures and formulations similar to those discussed in Example 5. Each person served as their own control for the testing. A Moor Instruments Laser Doppler was used to determine circulation. […] The formulations used produce positive, almost immediate results when applied to the skin which, in these studies, was manifested by vasodilatation of the cutaneous vascular system. For each subject, the following creams were applied: a negative control formulation (containing no NO), 0.010 gram of a 10,000 ppm NO formulation, 0.020 gram of a 10,000 ppm NO formulation, and a positive control formulation containing 0.1% methyl nicotinate. The formulations were prepared using procedures similar to those discussed in Example 1.

The structures appear in SMILES notation.

Turning to `COC(=O)c1cccnc1` [methyl nicotinate], in experiment [1], the “Vasodilator response of positive control” value is “rapid response typical of the vasodilator”. In addition, the “Vasodilatation (laser Doppler)” value in experiment [2] is reported as “vasodilatation was observed”.

(Values after US9795632B2, “Cancer treatments and compositions for use thereof” (priority 2012, dated 2017).)
